# In ChEMBL document CHEMBL5104094, “Chemistry, biosynthesis and biological activity of terpenoids and meroterpenoids in bacteria and fungi isolated from different marine habitats” (Eur J Med Chem, 2021):
# Structures can show the parent of a compound that is named as a salt.
# Tested on: not listed separately
# Test: Inhibition of Influenza virus neuraminidase
# Design: species or system unidentified influenza virus
# Conditions: not given
row,SMILES,IC50
1,C=C1[C@@]2(CCC(=O)OC2(C)C)CC[C@@]2(C)[C@]34C(=C)[C@@]5(C)OC(=O)[C@@]3(O[C@@]12[C@H]5O)[C@H](C)OC4=O,1370 nM
2,CCOC(=O)C1=C[C@@H](OC(CC)CC)[C@H](NC(C)=O)[C@@H](N)C1 [OSELTAMIVIR],990 nM

# Tested on: MCF7
# Test: Cytotoxicity against human MCF7 cells assessed as cell growth inhibition by MTT assay
# Assay type: functional, cell-based
# Conditions: not given
row,SMILES,IC50
1,C=C[C@]1(C)C=C2C(=O)C(O)=C3C(C)(C)CCC[C@]3(C)[C@@]2(O)CC1,35.9 µM
2,C=C[C@@]1(C)CCC2=C([C@H]1O)[C@H](O)[C@]1(O)OC[C@@]23CCCC(C)(C)[C@@]31O,> 70 µM
3,C=C[C@]1(C)C=C2C(=O)C(O)=C3C(C)(C)[C@@H](O)CC[C@]3(C)[C@@]2(O)[C@H](O)C1,> 70 µM
4,C=C[C@]1(C)C=C2C(=O)C(O)=C3C(C)(C)[C@@H](O)CC[C@]3(C)[C@@]2(O)CC1,25.6 µM
5,C=C[C@@]1(C)CCC2=C([C@H](O)C(=O)[C@@]3(O)C(C)(C)CCC[C@]23C)[C@H]1O,> 70 µM

# Tested on: HCT-116
# Test: Cytotoxicity against human HCT-116 cells assessed as cell growth inhibition
# Assay type: functional, cell-based
# Conditions: not given
row,SMILES,IC50
1,C=C[C@]1(C)C=C2C(=O)C(O)=C3C(C)(C)CC[C@@H](O)[C@]3(C)[C@@]2(O)CC1,15 µM
2,C=C[C@]1(C)C=C2C(=O)C(O)=C3[C@](C)(CO)CC[C@@H](O)[C@]3(C)[C@@]2(O)CC1,53 µM
3,COC(=O)c1c(C)cc2c(c(C)c1=O)O[C@@]1(C)CC[C@H]3C(C)(C)OC(=O)C=C[C@]3(C)[C@@H]1C2,13.9 µM
4,COC(=O)c1c(C)cc2c(c(C)c1=O)O[C@@]1(C)CC[C@H]3C(C)(C)OC(=O)C[C@@H](O)[C@]3(C)[C@@H]1C2,13.2 µM
5,COC(=O)c1c(C)cc2c(c(C)c1=O)O[C@@]1(C)CC[C@H]3C(C)(C)OC(=O)C[C@@H](OC(C)=O)[C@]3(C)[C@@H]1C2,10.9 µM
6,C=C[C@]1(C)C=C2C(=O)C(O)=C3[C@](C)(CO)CC=C[C@]3(C)[C@@]2(O)CC1,15 µM

# Target: Tyrosine-protein phosphatase non-receptor type 1 (Homo sapiens, UniProt P18031)
# Sequence (P18031 whole entry): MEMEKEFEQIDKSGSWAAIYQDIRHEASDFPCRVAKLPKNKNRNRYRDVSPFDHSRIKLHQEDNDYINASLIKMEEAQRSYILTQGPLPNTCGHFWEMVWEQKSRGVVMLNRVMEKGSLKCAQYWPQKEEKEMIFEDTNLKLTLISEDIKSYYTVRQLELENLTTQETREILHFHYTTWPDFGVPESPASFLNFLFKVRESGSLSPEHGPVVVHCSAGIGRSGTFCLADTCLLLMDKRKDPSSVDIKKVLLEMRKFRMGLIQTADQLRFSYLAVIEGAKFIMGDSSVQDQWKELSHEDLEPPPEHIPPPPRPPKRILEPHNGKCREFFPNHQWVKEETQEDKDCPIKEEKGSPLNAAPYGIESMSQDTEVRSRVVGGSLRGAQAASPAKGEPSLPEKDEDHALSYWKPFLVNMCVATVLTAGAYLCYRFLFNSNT
# Test: Inhibition of recombinant human PTP1B expressed in Escherichia coli using p-nitrophenyl phosphate as substrate preincubated for 15 mins followed by substrate addition measured after 60 mins by absorbance based assay
# Conditions: not given
row,SMILES,IC50
1,CC(C)(O)[C@H]1OC2CC[C@@]3(C)[C@@](O)(CC[C@H]4C[C@]5(OCNc6ccccc65)C(=O)[C@@]43C)C2=CC1=O (stereo partly specified),1700 nM

# Tested on: MCF7
# Test: Antitumor activity against Adriamycin-resistant human MCF7 cells xenografted in athymic nude BALB/c mouse assessed as tumor growth inhibition at 5 mg/kg, iv measured every 4 days for 40 days by caliper method relative to control
# Assay type: functional
# Conditions: MCF7, 960 h, time 40 day, read-out: TGI
row,SMILES,inhibition in vivo at 5 mg/kg
1,COc1cccc2c1C(=O)c1c(O)c3c(c(O)c1C2=O)C[C@@](O)(C(=O)CO)C[C@@H]3O[C@H]1C[C@H](N)[C@H](O)[C@H](C)O1 [DOXORUBICIN HYDROCHLORIDE],46%

# Tested on: Panel NCI-60 (60 carcinoma cell lines)
# Test: Cytotoxicity against human Panel NCI-60 (60 carcinoma cell lines) assessed as cell growth inhibition
# Assay type: functional, cell-based
# Conditions: not given
row,SMILES,IC50
1,C[C@H]1CC[C@@]23C1=C[C@@]1(C)CC[C@](C)(C[C@H](O)C(=O)[C@@](C)(O)CO)[C@H]1[C@@H]2CC[C@@H]3C,18 µM
2,C[C@H]1CC[C@@]23C1=C[C@@]1(C)CC[C@](C)(C[C@H](O)[C@H](O)C(C)(C)O)[C@H]1[C@@H]2CC[C@@H]3C,18 µM
3,C[C@H]1C[C@@H](O)[C@@]23C1=C[C@@]1(C)CC[C@](C)(C[C@H](O)[C@H](O)C(C)(C)O)[C@H]1[C@@H]2CC[C@@H]3C,18 µM
4,C[C@H]1CC[C@@]23C1=C[C@@]1(C)CC[C@](C)(C[C@H](O)[C@H](O)C4(C)CO4)[C@H]1[C@@H]2CC[C@@H]3C (stereo partly specified),18 µM
5,C[C@H]1CC[C@@]23C1=C[C@@]1(C)CC[C@](C)(C[C@H](O)[C@H](O)[C@@](C)(O)CO)[C@H]1[C@@H]2CC[C@@H]3C,18 µM
6,C[C@H]1C[C@@H](O)[C@@]23C1=C[C@@]1(C)CC[C@](C)(C[C@H](O)[C@H](O)[C@@](C)(O)CO)[C@H]1[C@@H]2CC[C@@H]3C,18 µM
7,C[C@H]1CC[C@@]23C1=C[C@@]1(C)CC[C@](C)(C[C@H](O)[C@H](O)[C@@](C)(O)CO)[C@H]1[C@@H]2C[C@@H](O)[C@@H]3C,18 µM

# Tested on: HCT-116
# Test: Cytotoxicity against human HCT-116 cells assessed as cell growth inhibition by MTT assay
# Assay type: functional, cell-based
# Conditions: not given
row,SMILES,IC50
1,CC(C)=CCn1c2ccc(Br)c(=O)c-2nc2ccccc21,29 nM

# Tested on: Mycolicibacterium smegmatis
# Test: Antibiofilm activity against Mycobacterium smegmatis assessed as inhibition of biofilm formation incubated for 4 days
# Assay type: functional
# Conditions: 96 h, time 4 day
row,SMILES,MIC
1,CC(C)=C/C=C\[C@H](C)[C@H]1CC[C@]2(C)C[C@H]3[C@H](C(=O)C[C@@]3(C)O)/C(C=O)=C\C[C@@H]12,25 µg/mL
2,CC(C)=C/C=C\[C@H](C)[C@H]1CC[C@]2(C)C[C@@H]3C(C)=CC(=O)[C@@H]3/C(C=O)=C\C[C@@H]12,6.23 µg/mL

# Target: Tyrosine-protein phosphatase non-receptor type 2 (Homo sapiens, UniProt P17706)
# Sequence (P17706 whole entry): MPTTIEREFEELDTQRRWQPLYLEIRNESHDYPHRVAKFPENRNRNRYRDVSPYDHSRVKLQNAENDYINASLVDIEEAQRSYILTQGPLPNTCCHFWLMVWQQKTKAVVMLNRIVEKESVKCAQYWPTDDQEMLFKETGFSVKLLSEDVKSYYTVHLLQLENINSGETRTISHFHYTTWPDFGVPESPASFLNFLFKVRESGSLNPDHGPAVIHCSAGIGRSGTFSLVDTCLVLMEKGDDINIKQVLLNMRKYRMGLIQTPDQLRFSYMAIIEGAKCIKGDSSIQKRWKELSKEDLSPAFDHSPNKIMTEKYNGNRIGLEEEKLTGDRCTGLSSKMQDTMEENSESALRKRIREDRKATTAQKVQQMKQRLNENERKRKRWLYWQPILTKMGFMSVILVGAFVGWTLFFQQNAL
# Test: Inhibition of recombinant human TCPTP expressed in Escherichia coli using p-nitrophenyl phosphate as substrate preincubated for 15 mins followed by substrate addition measured after 60 mins by absorbance based assay
# Conditions: not given
row,SMILES,IC50
1,CC(C)(O)[C@H]1OC2CC[C@@]3(C)[C@@](O)(CC[C@H]4C[C@]5(OCNc6ccccc65)C(=O)[C@@]43C)C2=CC1=O (stereo partly specified),1700 nM
